Laboratory results: patent US20140171358A1, “ANTIMICROBIAL COMPOSITIONS COMPRISING DGLA AND NEOMYCIN SULFATE AND METHODS OF USE THEREOF” (Dignity Sciences Limited, priority 2012, published 2014)

Key:
Format in all cases: cell-based
[1] = test system: P. acnes; experiment: agar dilution method: growth index and MIC on P. acnes (single compounds and combinations)
Protocol: Several compounds including fatty acids such as DGLA, 15-OHEPA, and 15-HETrE were tested to determine their capacity to inhibit the growth of P. acnes. In an exemplary method, an agar dilution method was used to determine the minimum inhibitory concentration (MIC) of each tested compound. Briefly, the agar dilution method involved preparing a series of concentrations of each compound (e.g., nicotinamide, benzoyl peroxide, adapalene, metronidazole, DGLA, 15-OHEPA, and 15-HETrE) in a Reinforced Clostridial Agar (RCA) media that facilitates growth of P. acnes under anaerobic conditions. An inoculum of P. acnes was prepared by incubation of P. acnes for approximately seven days at 35-37° C. to achieve a ≧1.0 OD600 inoculum of P. acnes in RCM broth. A portion of this inoculum was then added to the surface of each plate as a 10 μL spot and incubated at 35-37° C. for 72 hours or more. Growth of P. acnes was then observed and compared to control plates in which no compound has been added, and positive inhibition plates prepared with erythromycin. […] The growth of P. acnes in the presence of nicotinamide, benzoyl peroxide, adapalene, metronidazole, DGLA, 15-OHEPA, and 15-HETrE was determined with varying concentrations of the compound (see, Table 2). Next, the MIC was determined as the concentration at which a marked reduction (+) occurs in the appearance of growth on the test plate (as per Clinical and Laboratory Standards Institute M11-A7). The compounds tested singly in Example 1 were tested in combination with one another to determine the capacity of the combination to inhibit the growth of P. acnes. In an exemplary method, the MIC was determined for each of the combination as described in Example 1. Briefly, test combinations included DGLA with nicotinamide, benzoyl peroxide, adapalene, or metronidazole; 15-HETrE with nicotinamide, benzoyl peroxide, adapalene, or metronidazole; and 15-OHEPA with nicotinamide, benzoyl peroxide, adapalene, or metronidazole. The tables below show the growth of P. acnes in the presence of 0.4 or 1.0 mg/mL DGLA with varying concentrations of nicotinamide, benzoyl peroxide, adapalene, or metronidazole (Table 3); the growth of P. acnes in the presence of 0.01 or 0.05 mg/mL 15-HETrE with varying concentrations of nicotinamide, benzoyl peroxide, adapalene, or metronidazole (Table 5); and the growth of P. acnes in the presence of 0.5 or 0.1 mg/mL 15-OHEPA with varying concentrations of nicotinamide, benzoyl peroxide, adapalene, or metronidazole (Table 7).

[2] = test system: A. brasiliensis; experiment: paper disc corrected zone of inhibition (CZOI) on Mueller Hinton agar
Protocol: (§1) The compounds tested in Example 1 were tested to determine their capacity to inhibit the growth of a variety of Gram-negative bacteria, Gram-positive bactgeria, fungi and yeast. In an exemplary method, Mueller Hinton agar plates were streaked with 500 μL of a 10^5 colony-forming units/mL culture and allowed to dry for at least one minute. A sterile paper disc (6 mm diameter) was then placed in the middle of each plate using sterile forceps. Twenty microliters of a solution of a known concentration of a test compound in filter-sterilized 95% ethanol were pipetted onto each test plate. Two streaked plates served as positive inhibitory controls and contained 6 mm sterile paper discs with standard tetracycline solutions. Two additional plates served as negative inhibition controls and each contained 6 mm sterile paper discs with 20 μL of filter-sterilized 95% ethanol. Two more plates served as positive growth controls and contained no paper disc or added antibacterial agent. The plates were incubated at 32.5±2° C. for 24±4 hours, after which the corrected zone of inhibition (“CZOI”) was determined as follows: For each plate, the length Y2 and width X2 of the test sample (paper disc) and length Y1 and width X1 of the clear zone were measured (FIG. 1). The CZOI was calculated from these values as shown by the equation below: [formula]

[3] = test system: C. albicans; experiment: as above
Protocol: as §1

[4] = test system: C. striatum; experiment: as above
Protocol: as §1

[5] = test system: E. coli; experiment: as above
Protocol: as §1

[6] = test system: E. faecalis; experiment: as above
Protocol: as §1

[7] = test system: K. pneumoniae; experiment: as above
Protocol: as §1

[8] = test system: P. aeroginosa; experiment: as above
Protocol: as §1

[9] = test system: S. aureus; experiment: as above
Protocol: as §1

[10] = test system: S. epidermidis; experiment: as above
Protocol: as §1

CCC=CCC(O)C=CC=CCC=CCC=CCCCC(=O)O (centres unmarked) [15-OHEPA, 15-Hydroxy-eicosa-5,8,11,13,17-pentaenoic acid]
effect on growth of P. acnes on its own ([1]; 0.05 mg/mL): no effect on its own
MIC ([1]; Cutibacterium acnes, compound alone, read-out: MIC (mg/mL) as per P-11-0007 or P-11-0008 Addendum A): 0.05 to 0.075 mg/mL
Average CZOI ([2]; 0.01 mg/mL): 0.25 mm
Average CZOI ([2]; 0.025 mg/mL): 1.75 mm
Average CZOI ([2]; 0.05 mg/mL): 2 mm
Average CZOI ([2]; 0.075 mg/mL): 3.75 mm
Average CZOI ([2]; 0.1 mg/mL): 2.75 mm
Lowest Concentration With Observed Inhibition ([2]; A. brasiliensis): 0.001 mg/mL
Most Effective Concentration Observed ([2]; A. brasiliensis): 0.075 mg/mL
Average CZOI ([3]; 0.01 mg/mL): 1 mm
Average CZOI ([3]; 0.025 mg/mL): 1.5 mm
Average CZOI ([3]; 0.05 mg/mL): 2.5 mm
Average CZOI ([3]; 0.075 mg/mL): 2.25 mm
Average CZOI ([3]; 0.1 mg/mL): 1 mm
Lowest Concentration With Observed Inhibition ([3]; C. albicans): 0.001 mg/mL
Most Effective Concentration Observed ([3]; C. albicans): 0.05 mg/mL
Average CZOI ([4]; 0.01 mg/mL): 3.25 mm
Average CZOI ([4]; 0.025 mg/mL): 3 mm
Average CZOI ([4]; 0.05 mg/mL): 3.5 mm
Average CZOI ([4]; 0.075 mg/mL): 2 mm
Average CZOI ([4]; 0.1 mg/mL): 1.5 mm
Lowest Concentration With Observed Inhibition ([4]; C. striatum): 0.001 mg/mL
Most Effective Concentration Observed ([4]; C. striatum): 0.05 mg/mL
Average CZOI ([5]; 0.01 mg/mL): 2 mm
Average CZOI ([5]; 0.025 mg/mL): 1.25 mm
Average CZOI ([5]; 0.05 mg/mL): 1.25 mm
Average CZOI ([5]; 0.075 mg/mL): 1.75 mm
Average CZOI ([5]; 0.1 mg/mL): 1.5 mm
Lowest Concentration With Observed Inhibition ([5]; E. coli): 0.001 mg/mL
Most Effective Concentration Observed ([5]; E. coli): 0.001 mg/mL
Average CZOI ([6]; 0.01 mg/mL): 2.5 mm
Average CZOI ([6]; 0.025 mg/mL): 1.5 mm
Average CZOI ([6]; 0.05 mg/mL): 2.25 mm
Average CZOI ([6]; 0.075 mg/mL): 1.25 mm
Average CZOI ([6]; 0.1 mg/mL): 1.5 mm
Lowest Concentration With Observed Inhibition ([6]; E. faecalis): 0.001 mg/mL
Most Effective Concentration Observed ([6]; E. faecalis): 0.001 mg/mL
Average CZOI ([7]; 0.01 mg/mL): 2.25 mm
Average CZOI ([7]; 0.025 mg/mL): 1.5 mm
Average CZOI ([7]; 0.05 mg/mL): 1 mm
Average CZOI ([7]; 0.075 mg/mL): 1.75 mm
Average CZOI ([7]; 0.1 mg/mL): 2.25 mm
Lowest Concentration With Observed Inhibition ([7]; K. pneumoniae): 0.001 mg/mL
Most Effective Concentration Observed ([7]; K. pneumoniae): 0.001 mg/mL
Average CZOI ([8]; 0.01 mg/mL): 1.25 mm
Average CZOI ([8]; 0.025 mg/mL): 1 mm
Average CZOI ([8]; 0.05 mg/mL): 1.5 mm
Average CZOI ([8]; 0.075 mg/mL): 1.75 mm
Average CZOI ([8]; 0.1 mg/mL): 1.5 mm
Lowest Concentration With Observed Inhibition ([8]; P. aeroginosa): 0.001 mg/mL
Most Effective Concentration Observed ([8]; P. aeroginosa): 0.075 mg/mL
Average CZOI ([9]; 0.01 mg/mL): 0 mm
Average CZOI ([9]; 0.025 mg/mL): 1 mm
Average CZOI ([9]; 0.05 mg/mL): 1.25 mm
Average CZOI ([9]; 0.075 mg/mL): 2.25 mm
Average CZOI ([9]; 0.1 mg/mL): 2 mm
Lowest Concentration With Observed Inhibition ([9]; S. aureus): 0.025 mg/mL
Most Effective Concentration Observed ([9]; S. aureus): 0.075 mg/mL
Average CZOI ([10]; 0.01 mg/mL): 1 mm
Average CZOI ([10]; 0.025 mg/mL): 2 mm
Average CZOI ([10]; 0.05 mg/mL): 2.25 mm
Average CZOI ([10]; 0.075 mg/mL): 3 mm
Average CZOI ([10]; 0.1 mg/mL): 1.25 mm
Lowest Concentration With Observed Inhibition ([10]; S. epidermidis): 0.001 mg/mL
Most Effective Concentration Observed ([10]; S. epidermidis): 0.075 mg/mL
